Source: patent US20230286970A1, “NOVEL OXADIAZOLE-BASED SELECTIVE HDAC6 INHIBITORS” (ITALFARMACO S.P.A., priority 2020, published 2023)

Legend:
[1] = tested on: α-tubulin acetylation in 697 cell line; assay: In vitro α-tubulin acetylation in 697 cell line (ELISA); format: cell-based; conditions: 16 hours, read-out: fold increase @ 1 uM TubAc (ratio of acetylated tubulin and total tubulin towards control)
Experimental: The in vitro α-tubulin acetylation determination was evaluated on B 697 promyelocytic cell line.
The test molecules were diluted from 20 mM stock solution in DMSO with RPMI 10% FCS+0.01% DMSO medium at 20× concentration compared to the final concentration, added to the cells (15×10^6 cells in a total volume of 30 mL in RPMI medium 10% FCS+0.01% DMSO) to obtain the final concentrations of 1000, 333, 111, 37 nM and incubated at 37° C., 5% CO2 for 16 hours.
At the end of the incubation period, 5×10^6 cells were taken from each sample, centrifuged for 5 minutes at 1100 rpm and washed in 0.9% NaCl at 4° C. The resulting pellet was lysed by treating at 4° C. for 30 minutes with 150 μl of Complete Lysis-M buffer containing protease inhibitors (Complete Lysis-M Roche+Complete Tablets, Mini Easypack, cat: 4719956001) and phosphatase inhibitor cocktails (PhosStop Easypack, Roche, cat: 4906837001), then centrifuged 10 minutes at 14,000 rpm (20817×g). 0.3 μg of supernatant (total protein extract) were diluted in 100 μl of 1×PBS and immobilized in Maxisorp F96 NUN-IMMUNO Plate (Nunc MaxiSorp flat-bottom, Nunc, cat: 442404) at room temperature overnight. Plates were washed twice with Wash Buffer (PBS1×+0.005% tween 20) and saturated for 1 hour at room temperature with 300 μL of 1×PBS containing 10% FCS. After washing twice with Wash Buffer, the plates were incubated for two hours at room temperature in the presence of anti-acetylated-α-tubulin antibody (Monoclonal Anti-acetylated-tubulin clone 6-11B-1, mouse ascites fluid, Sigma, cat: T6793), 100 μl/well diluted 1:1000 in 1×PBS containing 10% FCS) or with total anti-α-tubulin antibody (Monoclonal Anti-alpha-tubulin produced in mouse, Sigma, cat: T6074). Following washing of the pates 5 times with Wash Buffer the secondary antibody conjugated with the enzyme HRP (Goat anti-Mouse IgG, IgM, IgA (H+L), Thermo Fisher Scientific, cat: A10668), diluted 1:1000 in 1×PBS+10% FBS was added at the volume of 100 μl/well.
After washing 4 times, 100 μl/well of TMB substrate kit was added for 10 minutes at room temperature in the dark. The reaction was stopped by adding 50 μl of 2N H2SO4. The plates were read at Multiskan Spectrum spectrophotometer at a wavelength of 450 nm.
The degree of acetylation was calculated by dividing the absorbance obtained for acetylated α-tubulin by the absorbance of total tubulin.
The results of tubulin acetylation, expressed as fold increase of ratio of acetylated α-tubulin/total α-tubulin, of each sample relative to the control sample (untreated) are summarized in table 6.

Stability in rat plasma = conditions: after 4 hours, 37° C.
[2] = Stability in human plasma; conditions: after 4 hours, 37° C.
[3] = Stability to Phase I metabolism in rat S9 liver fraction; conditions: after 90 minutes, 37° C.
Experimental: Test compounds were incubated in rat and human liver S9 fraction at 37° C. up to 90 minutes in order to evaluate their stability to Phase I metabolism by hepatic enzymes. Each test compound was incubated at μM concentration (50 μM when the samples were analysed by UV/HPLC, 1 or 2 μM when the samples were analysed by LC-MS/MS) with S9 fraction (protein content 2 mg/m L) in 100 mM phosphate buffer (pH 7.4), 3.3 mM MgCl2 and 1.3 mM NADPH for 0, 10, 30, 60 and 90 minutes at 37° C. in a thermostated oscillating bath. The reaction was stopped placing samples on ice bath and adding acidified acetonitrile. After centrifugation (10 minutes at 14000 rpm) an aliquot of the supernatant was diluted with water, filtered with 0.45 μm regenerated cellulose syringe filters and injected in HPLC-UV or in LC-MS/MS. The percentage of the remaining amount at the various incubation times with respect to the initial amount were calculated.

[4] = Stability to Phase I metabolism in human S9 liver fraction; conditions: after 90 minutes, 37° C.
recombinant human HDAC6 = recombinant human HDAC6 (Homo sapiens (Human), UniProt Q9UBN7); assay: Enzymatic screening, HDAC6 inhibition (fluorogenic FdL_G substrate); format: biochemical
Method in brief: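 Enzyme was preincubated with compound (8 doses, triplicate, 1% DMSO) in 25 mM Tris-HCl pH 8, 130 mM NaCl, 0.05% Tween-20, 10% glycerol, with BSA. A FLUOR DE LYS-Green substrate was then added, and fluorescence was read after developer plus 2 μM TSA.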

recombinant human HDAC1 = recombinant human HDAC1 (Homo sapiens (Human), UniProt Q13547); assay: Enzymatic screening, HDAC1 inhibition (fluorogenic FdL_G substrate); format: biochemical
Method in brief: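 Recombinant human HDAC1 inhibition was measured fluorometrically using the FLUOR DE LYS-Green (FdL_G) substrate. Compounds at 8 doses (1% DMSO final) in Tris-HCl pH 8 buffer with NaCl, Tween-20 and glycerol were preincubated in triplicate with enzyme and 1 mg/mL BSA, then given substrate. Developer I plus 2 μM TSA was added, and fluorescence read after 25 minutes in the dark.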

Chain of recombinant human HDAC6 (Q9UBN7 whole entry): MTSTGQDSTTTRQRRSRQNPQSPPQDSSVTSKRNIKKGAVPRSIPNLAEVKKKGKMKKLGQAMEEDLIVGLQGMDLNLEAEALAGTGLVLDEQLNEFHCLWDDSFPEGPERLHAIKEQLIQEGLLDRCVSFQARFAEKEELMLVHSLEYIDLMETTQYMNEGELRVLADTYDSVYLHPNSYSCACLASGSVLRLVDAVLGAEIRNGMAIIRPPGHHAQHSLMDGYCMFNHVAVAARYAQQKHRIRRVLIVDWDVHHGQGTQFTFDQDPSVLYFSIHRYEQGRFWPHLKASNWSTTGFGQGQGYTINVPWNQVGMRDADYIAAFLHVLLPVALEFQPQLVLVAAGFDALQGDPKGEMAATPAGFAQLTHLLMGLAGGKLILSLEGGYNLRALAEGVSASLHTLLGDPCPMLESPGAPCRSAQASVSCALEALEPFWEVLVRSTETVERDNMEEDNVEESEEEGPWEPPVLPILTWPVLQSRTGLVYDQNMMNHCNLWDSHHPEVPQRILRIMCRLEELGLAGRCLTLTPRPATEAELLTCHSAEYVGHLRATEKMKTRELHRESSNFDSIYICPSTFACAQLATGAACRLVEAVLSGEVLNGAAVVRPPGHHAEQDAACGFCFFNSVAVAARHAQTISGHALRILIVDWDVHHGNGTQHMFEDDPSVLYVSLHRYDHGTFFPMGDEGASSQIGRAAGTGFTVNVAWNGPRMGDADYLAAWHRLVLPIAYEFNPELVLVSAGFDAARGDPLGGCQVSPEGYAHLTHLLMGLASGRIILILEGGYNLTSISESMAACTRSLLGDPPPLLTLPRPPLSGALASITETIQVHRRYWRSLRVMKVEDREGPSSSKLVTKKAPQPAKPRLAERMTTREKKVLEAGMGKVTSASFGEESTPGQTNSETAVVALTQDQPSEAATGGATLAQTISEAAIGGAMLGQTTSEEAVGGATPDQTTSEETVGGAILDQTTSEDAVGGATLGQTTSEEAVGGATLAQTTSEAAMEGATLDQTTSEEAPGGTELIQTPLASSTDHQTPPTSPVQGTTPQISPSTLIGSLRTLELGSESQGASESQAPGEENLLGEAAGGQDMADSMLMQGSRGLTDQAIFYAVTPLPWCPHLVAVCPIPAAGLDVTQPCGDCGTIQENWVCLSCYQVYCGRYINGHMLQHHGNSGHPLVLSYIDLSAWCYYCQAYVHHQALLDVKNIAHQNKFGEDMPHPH
Chain of recombinant human HDAC1 (Q13547 whole entry): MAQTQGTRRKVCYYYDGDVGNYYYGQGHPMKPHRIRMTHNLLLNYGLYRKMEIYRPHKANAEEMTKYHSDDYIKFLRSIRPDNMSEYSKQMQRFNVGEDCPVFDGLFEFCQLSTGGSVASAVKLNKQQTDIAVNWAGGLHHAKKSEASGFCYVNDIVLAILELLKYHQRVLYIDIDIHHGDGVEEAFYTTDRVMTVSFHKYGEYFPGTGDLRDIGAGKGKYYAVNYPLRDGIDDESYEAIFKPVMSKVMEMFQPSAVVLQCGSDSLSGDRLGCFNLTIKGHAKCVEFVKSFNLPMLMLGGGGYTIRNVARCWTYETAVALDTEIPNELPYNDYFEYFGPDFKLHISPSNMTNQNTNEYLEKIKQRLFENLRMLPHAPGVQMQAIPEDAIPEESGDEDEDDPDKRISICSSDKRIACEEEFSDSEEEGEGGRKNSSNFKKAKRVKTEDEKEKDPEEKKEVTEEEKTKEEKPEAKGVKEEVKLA

Row | residual percentage in RAT PLASMA (Stability in rat plasma) [%] | residual percentage in HUMAN PLASMA [2] [%] | residual percentage in RAT S9 FRACTION [3] [%] | residual percentage in HUMAN S9 FRACTION [4] [%] | IC50 (recombinant human HDAC6) [µM] | IC50 (recombinant human HDAC1) [µM] | SMILES | fold induction at 1 µM [1]
1 | 72 | 81 | 79 | 91 | – | – | Nc1ccc(-c2cn(Cc3ccc(-c4nnc(C(F)F)o4)c(F)c3)nn2)cn1 [compound 15, 5-(1-(4-(5-(difluoromethyl)-1,3,4-oxadiazol-2-yl)-3-fluorobenzyl)-1H-1,2,3-triazol-4-yl)pyridin-2-amine] | 16
2 | 67 | 97 | 91 | 97 | 0.014 | > 200 | C[C@H](c1ccc(-c2nnc(C(F)F)o2)cn1)n1cc(-c2ccc(N)nc2)nn1 [Compd. 32, (R)-5-(1-(1-(5-(5-(difluoromethyl)-1,3,4-oxadiazol-2-yl)pyridin-2-yl)ethyl)-1H-1,2,3-triazol-4-yl)pyridin-2-amine] | 31
3 | – | – | – | – | – | – | NC(=O)c1cccc(-c2nnn(Cc3ccc(-c4nnc(C(F)F)o4)cn3)n2)c1 [compound 29, 3-(2-((5-(5-(difluoromethyl)-1,3,4-oxadiazol-2-yl)pyridin-2-yl)methyl)-2H-tetrazol-5-yl)benzamide] | 15
4 | 83 | 83 | 97 | 95 | 0.011 | > 200 | O=C1Nc2ccc(-c3cn(Cc4ccc(-c5nnc(C(F)F)o5)cn4)nn3)cc2C12CCNC2 (single isomer, unassigned) [compound 274, 5-(1-((5-(5-(difluoromethyl)-1,3,4-oxadiazol-2-yl)pyridin-2-yl)methyl)-1H-1,2,3-triazol-4-yl)spiro[indoline-3,3′-pyrrolidin]-2-one] | 12
5 | 75 | 82 | 71 | 92 | 0.044 | > 200 | NC(=O)c1ccc(-c2nnn(Cc3ccc(-c4nnc(C(F)F)o4)cc3)n2)cc1 [compound 116, 4-(2-(4-(5-(difluoromethyl)-1,3,4-oxadiazol-2-yl)benzyl)-2H-tetrazol-5-yl)benzamide] | 5
6 | 69 | 95 | 83 | 89 | 0.015 | > 200 | CNc1ccc2cc(-c3cn(Cc4ccc(-c5nnc(C(F)F)o5)cn4)nn3)ccc2n1 [compound 34, 6-(1-((5-(5-(difluoromethyl)-1,3,4-oxadiazol-2-yl)pyridin-2-yl)methyl)-1H-1,2,3-triazol-4-yl)-N-methylquinolin-2-amine] | 28
7 | 79 | 90 | 62 | 90 | 0.022 | > 200 | CN1CCN(C(=O)Nc2cccc(-c3cn(Cc4ccc(-c5nnc(C(F)F)o5)cn4)nn3)c2)CC1 [Compd. 51, N-(3-(1-((5-(5-(difluoromethyl)-1,3,4-oxadiazol-2-yl)pyridin-2-yl)methyl)-1H-1,2,3-triazol-4-yl)phenyl)-4-methylpiperazine-1-carboxamide] | 26
8 | 87 | 92 | 78 | 86 | 0.04 | > 200 | C[C@@H](c1ccc(-c2nnc(C(F)F)o2)cc1)n1cc(-c2cccc(NC(=O)N3CCOCC3)c2)nn1 (stereo in doubt) [compound 104, N-(3-(1-(1-(4-(5-(difluoromethyl)-1,3,4-oxadiazol-2-yl)phenyl)ethyl)-1H-1,2,3-triazol-4-yl)phenyl)morpholine-4-carboxamide] | 15
9 | 77 | 91 | 92 | 94 | 0.019 | 123 | O=C1Nc2cc(-c3cn(Cc4ccc(-c5nnc(C(F)F)o5)cn4)nn3)ccc2NC12CCNCC2 [compound 41, 6′-(1-((5-(5-(difluoromethyl)-1,3,4-oxadiazol-2-yl)pyridin-2-yl)methyl)-1H-1,2,3-triazol-4-yl)-1′,4′-dihydro-3′H-spiro[piperidine-4,2′-quinoxalin]-3′-one] | 4
10 | 82 | 81 | 98 | 96 | 0.034 | > 200 | NC(=O)c1cccc(-c2nnn(Cc3ccc(-c4nnc(C(F)F)o4)c(F)c3)n2)c1 [compound 89, 3-(2-(4-(5-(difluoromethyl)-1,3,4-oxadiazol-2-yl)-3-fluorobenzyl)-2H-tetrazol-5-yl)benzamide] | 8
11 | 92 | 94 | 96 | 91 | 0.047 | > 200 | Nc1ccc(-c2cn(C(CN3CCCC3)c3ccc(-c4nnc(C(F)F)o4)cc3)nn2)cn1 (centres unmarked) [Compd. 124, 5-(1-(1-(4-(5-(difluoromethyl)-1,3,4-oxadiazol-2-yl)phenyl)-2-(pyrrolidin-1-yl)ethyl)-1H-1,2,3-triazol-4-yl)pyridin-2-amine] | 13
12 | 83 | 72 | 95 | 93 | – | – | Nc1nc2ccc(-c3cn(Cc4ccc(-c5nnc(C(F)F)o5)cc4)nn3)cc2s1 [compound 14, 6-(1-(4-(5-(difluoromethyl)-1,3,4-oxadiazol-2-yl)benzyl)-1H-1,2,3-triazol-4-yl)benzo[d]thiazol-2-amine] | 19
